From patent US9487752B2, “Priming of pluripotent stem cells for neural differentiation” (Cellular Dynamics International, Inc., priority 2011, dated 2016) come the findings set out here.

What all share (assay type): cell-based
The subject of one assay is iPSC line (2.042). Description: Neural differentiation of iPSC line 2.042, neuron purity by βIII-tubulin/Nestin double stains. As to conditions: only one of 10 μM SB-431542 or 1 μM dorsomorphin in medium on Days −2, −1, 0 and 1; Day 28 (FIG. 3C).
The test system of assay [1] is iPS cell line 8004. Description: Neuron purity of iPS cell line 8004 by TUJ1/Nestin flow cytometry staining. The note with it: 10 μM SB-431542 on Days −2, −1, 0, and 1; Day 28. How it is done: (§1) iPS cell line 8004 was differentiated using the procedure of Example 3 with and without 10 μM SB-431542 added to culture medium on Days −2, −1, 0, and 1. On Day 28, neuron purity as determined by TUJ1/Nestin flow cytometry staining was 80% without SB-431542 and 97% with SB-431542. Beginning on Day 30 of the. procedure, cells were fed 90% 1× DMEM-F12/10% FBS every 7 days. Astrocyte outgrowth was first detected on Day 45. On Day 48, cultures were assayed by flow cytometry for astrocyte purity using GFAP as a marker for astrocytes. […] In summary, the methods detailed herein provide for a method to produce cultures of high purity astrocytes in a time efficient manner relative to existing astrocyte differentiation methods.

The subject of assay [2] is iPS cell line 8004. Description: Astrocyte purity of iPS cell line 8004 cultures by flow cytometry using GFAP as marker. As to conditions: 10 μM SB-431542 on Days −2, −1, 0, and 1; fed 10% FBS from Day 30; Day 48. How it is done:
as §1

For a further assay, the system named is iPSC line 1729c4. Description: Neural differentiation of iPSC line 1729c4, purity by flow cytometry with βIII-tubulin/Nestin double stains. The note with it: 10 ng/mL FGF8 present on Day −3; Day 27. The text has this:
iPS cells were maintained on Matrigel in TeSR medium (Stem Cell Technologies) and sodium citrate split one passage prior to aggregate formation and grown in T150 flasks, but can be scaled for starting cells in other culture formats. Alternate pluripotent cell culture media (such as E8 media: Chen et al., 2011), containing varying concentrations of TGFβ and/or bFGF, can be used to optimize neural differentiation of different iPS cell lines or clones. Pluripotent cell cultures were then “primed” for differentiation three or four days prior to aggregate formation. […]
On Day 0 of the neuron differentiation process (specifically, aggregate formation), cells are harvested from T150 flasks (up to five flasks at one time) and, after media is aspirated, 12 mL of warm TrypLE is added to each flask and the cells are incubated at 37° C. for 7 minutes. […] The tubes may be combined and cells are counted (CEDEX HiRES cell counter). […] Diluted cell stock is counted (CEDEX HiRES cell counter). […]

With `NC(=O)c1ccc(-c2nc(-c3ccc4c(c3)OCO4)c(-c3ccccn3)[nH]2)cc1` [SB-431542], the “neuron purity by βIII-tubulin/Nestin double stains compared to both inhibitors” value in the assay with iPSC line (2.042) is given as “similarly high neuron purities”. Further, the “neuron purity by TUJ1/Nestin flow cytometry staining” value in the assay on iPS cell line 8004 [1] is given as 97%. For the same molecule, in the assay with iPS cell line 8004 [2], the “GFAP positive cells (astrocyte purity)” value is recorded as 56%.

B1: FGF8: fibroblast growth factor 8, reported as an endogenous neural inducer (protein, UniProt P55075 23-233, looked up)
Fibroblast growth factor 8: QEGPGRGPALGRELASLFRAGREPQGVSQQHVREQSLVTDQLSRRLIRTYQLYSRTSGKHVQVLANKRINAMAEDGDPFAKLIVETDTFGSRVRVRGAETGLYICMNKKGKLIAKSNGKGKDCVFTEIVLENNYTALQNAKYEGWYMAFTRKGRPRKGSKTRQHQREVHFMKRLPRGHHTTEQSLRFEFLNYPPFTRSLRGSQRTWAPEPR
Molecule B1 had a βIII-tubulin/Nestin positive cells in the assay on iPSC line 1729c4 of 90%.
